We go through twelve compounds from US11913884B2, “Visible light-activated dyes and methods of use thereof” (William Marsh Rice University, priority 2019, dated 2024).

The nature of data set [1]: Fluorescence quantum yield determination. The format is physicochemical. Particulars: DMSO; reference rhodamine B in ethanol or quinine sulfate in 0.5 M H2SO4. The protocol:
(§1) The ^1H NMR spectroscopic measurements were carried out using a Bruker-600 NMR at 600 MHz with tetramethysilane (TMS) as internal reference. Electrospray ionization (ESI) mass spectra were performed on a Bruker MicroToF ESI LC-MS System in positive-ion mode. The steady-state absorption spectra were obtained with a ThermoFisher Evolution 220 UV-Vis spectrophotometer in 1 cm path length quartz cells. Fluorescence spectra were recorded using spectrophotometer (SPEX FluoroLog-3). Quantum yield in DMSO was measured relative to the fluorescence of Rhodamine B (Φ=0.65) in ethanol or quinine sulfate (Φ=0.55) in 0.5 M·L^−1 H2SO4. FT-IR spectrum was taken on a PerkinElmer Spectrum 100 FT-IR Spectrometers. Confocal fluorescent images of living cells were performed using Nikon A1R-si Laser Scanning Confocal Microscope (Japan), equipped with lasers of 405/488/561/638 nm. STORM images were performed on a NSTORM (Nikon, Japan), featuring a CFI Apo TIRF 100× oil objective (NA 1.49) on an inverted Nikon Ti Eclipse microscope with a quad cube filter (Chroma, zt405/488/561/640 m-TRF), piezo stage, and Perfect Focus System (Nikon) for Z-stability. Light source are hand-held UV lamp, BlueView Transilluminator (470 nm centred, Vernier), Prior Lumen200 with 615/30 filter and 850 LED (Mouser Electronics).
Quantum yields were measured with Rhodamine B as reference (Φ=0.65) or quinine sulfate (Φ=0.55) in 0.5 M H2SO4. Fluorescence measurements were performed in 1 cm quartz cells with 5 μM samples in DMSO on spectrophotometer (SPEX FluoroLog-3) (slits 5×5). The fluorescence quantum yield, Φ (sample), were calculated according to equation as following:
[formula] Φ: quantum yield; I: integrated emission intensity; OD: optical density at the excitation wavelength; d: refractive index of solvents, dDMSO=1.478; dethanol=1.36; dwater=1.33.

A short description of data set [2]: UV-vis absorption and fluorescence spectra of thio-caged and uncaged fluorophores. The data set is classed as physicochemical. The conditions noted are these: for λem / λabs: DMSO (50 μM); for λabs: absorption maxima. Here is the method: Encouraged by the excellent photoactivation properties of SNile Red, Lawesson's reagent was employed to introduce thiocarbonyl moieties into several different fluorophores, such as phthalimide (PI), coumarin (Cou) and acridone (ACD), obtaining yields ranging from 20-80% (FIG. 1). Next, characterization of the spectroscopic and photochemical properties of these thiocaged fluorophores and their oxidized products using UV-vis and fluorescence spectroscopies was performed (Table 1). […] Double thiocarbonyl substitution on 4-dimethylaminophthalimide (4-DMAP, FIG. 1) produced an even larger bathochromic shift of 166 nm. […] It was hypothesized that the red-shift and enhanced absorption seen with thiocarbonyl compounds were due to the reduced energy gap between the HOMO-LUMO in these fluorophores. This is consistent with the computational results discussed below. […] To assess the efficiency of photoactivation for the various thio-caged fluorophores, UV-vis and fluorescence spectra were recorded after different irradiation times (FIGS. 4-8).
as §1

A short description of data set [3]: Photoactivation (turn-on) of thio-caged fluorophores in solution by light irradiation. The conditions noted are these: DMSO; footnote d: 615 nm, 0.4 μW cm^−2. The data set is classed as physicochemical. From the text: To determine whether a minimal one atom sulfur-for-oxygen substitution within fluorophores can lead to fluorescence quenching, thio-caged Nile Red (SNile Red, FIG. 1) was synthesized, in which a carbonyl group was replaced with a thiocarbonyl moiety. Treatment of Nile Red with Lawesson's reagent in refluxing benzene produced the desired SNile Red in a yield of 40%. […] Irradiation of SNile Red with red light (615 nm, 0.4 μW cm-2) led to the regeneration of fluorescent Nile Red in a high yield (FIG. 2A). The absorption maxima of SNile Red at 298, 368 and 652 nm were blue-shifted after desulfuration to 315 and 556 nm, in a good agreement with the absorption spectrum of authentic synthesized Nile Red (FIG. 2B). The A556/A652 value, representing the ratio of the absorbance maxima of Nile Red and SNile Red, increased from 0.25 to 30 after desulfuration reaction (FIG. 2B). Upon irradiation with red light, the fluorescence intensity of the desulfurated material at 626 nm increased 280-fold, accompanied by a change in fluorescence from dark to red (FIG. 2C). To evaluate the proper light source for SNile Red photoactivation, SNile Red was irradiated with either 470 nm, 615 nm, or 850 nm light for different times and fluorescence intensities at 626 nm were recorded. […] To further characterize the photoactivated product of SNile Red, ^1H NMR and ESI-MS spectral changes were measured in the process of photoactivation (FIG. 2A). […] Signals corresponding to phenyl moiety protons at 8.64, 8.62, 7.85, 7.73, 7.36, 7.04, and 6.79 ppm gradually disappeared, and were replaced by new signals appearing at 8.57, 8.13, 7.81, 7.72, 7.63, 6.85, 6.69 and 6.30 ppm, respectively. […] The photoactivated product was also characterized by ESI-mass spectrometric analysis FIG. 3). The observed m/z 319.2 corresponding to Nile Red confirms the photoactivation product of SNile Red is its oxo form. Both dialkylthioketones and diarylthioketones are known to undergo photo-oxidation reaction under oxygen and light to give the corresponding ketones (Coyle, 1985, Corsaro and Pistara, 1998). To investigate the effects of dissolved oxygen and light on the photoactivation of thio-caged fluorophores, the time profile of the fluorescence of SNile Red was measured in the presence or absence of light, or oxygen. […] To study the effect of oxygen during the photoactivation, the inventors prepared an oxygen-free SNile Red solution by bubbling nitrogen gas and irradiated at 615 nm. […] Inspired by the photoactivation mechanism of thioketones, it was hypothesized that singlet oxygen generated by self-sensitization can be the active species to oxidize thiocarbonyl groups within fluorophores (Coyle, 1985 and Corsaro and Pistara, 1998). […] The singlet oxygen quantum yield (DA) was further determined to be 0.36 with considering the absorption correction factor over the 600-630 nm region (Bonacin et al., 2009 and Adarsh et al., 2010) by referring to methylene blue (MB) (ΦΔ,MB=0.57 in dichloromethane; Li et al., 2013).
Encouraged by the excellent photoactivation properties of SNile Red, Lawesson's reagent was employed to introduce thiocarbonyl moieties into several different fluorophores, such as phthalimide (PI), coumarin (Cou) and acridone (ACD), obtaining yields ranging from 20-80% (FIG. 1). Next, characterization of the spectroscopic and photochemical properties of these thiocaged fluorophores and their oxidized products using UV-vis and fluorescence spectroscopies was performed (Table 1). […] Double thiocarbonyl substitution on 4-dimethylaminophthalimide (4-DMAP, FIG. 1) produced an even larger bathochromic shift of 166 nm. […] It was hypothesized that the red-shift and enhanced absorption seen with thiocarbonyl compounds were due to the reduced energy gap between the HOMO-LUMO in these fluorophores. This is consistent with the computational results discussed below. […]

The subject of data set [4] is H2B-Halo expressed CHO-K1 cells. In words: Turn-on of 5NP-Halo in cells. The format is cell-based. Particulars: 10 μM for 1 h. An excerpt:
FIGS. 19A & 19B show turn-on of 5NP-Halo in H2B-Halo expressed CHO-K1 cells.

The conditions of data set [5]: in dichloromethane; cited from earlier work.
The conditions of data set [6]: cited from earlier work.

Where “and” joins values, the source holds several entries; their conditions need not be identical. Equal values may be shown once. Where a name gives a salt, the structure may show the parent alone. Read-outs that look alike come from different tables or passages of the source. Some results are limits rather than exact numbers.

As to `CN(C)c1ccc2c(c1)C(=O)NC2=O` [DMAP, 4-dimethylaminophthalimide], the “ø (fluorescence quantum yield)” value in data set [1] came to 0.09. Besides, in data set [2], the λem came to 505 nm; the λabs is 267 nm and 325 nm and 397 nm. In data set [2] (double thiocarbonyl substitution versus carbonyl compound), the “bathochromic shift of absorption maximum” value was 166 nm.

As to `CN(C)c1ccc2c(c1)C(=S)NC2=S` [SDMAP], the “ø (fluorescence quantum yield)” value in data set [1] is <0.001. Moreover, in data set [2], the λem was found to be 447 nm; the λabs was 326 nm and 390 nm and 563 nm. Moreover, the “Turn-on (x-fold)” value in data set [3] is on record as 1600^d x-fold.

For the compound `O=c1ccc2ccccc2o1` [Cou, coumarin], the “ø (fluorescence quantum yield)” value in data set [1] was found to be 0.71. Moreover, the λem in data set [2] is on record as 445 nm.

For the compound `CCN(CC)c1ccc2nc3c4ccccc4c(=O)cc-3oc2c1` [Nile Red], in data set [1], the “ø (fluorescence quantum yield)” value worked out at 0.46. The λem in data set [2] is 626 nm.

In the case of `S=c1c2ccccc2[nH]c2ccccc12` [SACD], the “ø (fluorescence quantum yield)” value in data set [1] is <0.001. In addition, in data set [2], the λem was 409 nm and 427 nm and 463 nm; the λabs is 430 nm and 456 nm. Further, the “Turn-on (x-fold)” value in data set [3] is reported as 180^d x-fold.

As for `O=C1NC(=O)c2ccccc21` [OPI, phthalimide], the “ø (fluorescence quantum yield)” value in data set [1] is 0.001. In data set [2], this compound yielded a λem of 347 nm.

`O=C(CN1C(=S)c2cccc3c(N4CCCC4)ccc(c23)C1=S)NCCOCCOCCCCCCCl` [Dye 5NP-Halo]: the “fluorescence upon photoactivation of treated cells” value in data set [4] is “enhanced fluorescence”.

With `S=C1NC(=S)c2ccccc21` [Dye 2SPI], the “ø (fluorescence quantum yield)” value in data set [1] is given as <0.001. This compound registered a λem in data set [2] of 294 nm. Moreover, the “Turn-on (x-fold)” value in data set [3] was 30^d x-fold.

Take `CN(C)c1ccc2nc3ccc(=[N+](C)C)cc-3sc2c1` [methylene blue]: the “singlet oxygen quantum yield (ΦΔ,MB) of reference” value in data set [5] is recorded as 0.57.

On to `CCN(CC)c1ccc2c(-c3ccccc3C(=O)O)c3ccc(=[N+](CC)CC)cc-3oc2c1.[Cl-]` [Rhodamine B], for which the “fluorescence quantum yield Φ of reference” value in data set [6] (in ethanol) is on record as 0.65.

For `C=C[C@H]1C[N@@]2CC[C@H]1C[C@H]2[C@H](O)c1ccnc2ccc(OC)cc12` [quinine sulfate], the “fluorescence quantum yield Φ of reference” value in data set [6] (in 0.5 M H2SO4) is recorded as 0.55.

Regarding `O=c1c2ccccc2[nH]c2ccccc12` [ACD, acridone], the “ø (fluorescence quantum yield)” value in data set [1] was determined as 0.64. In data set [2], the λem was 406 nm and 428 nm and 455 nm; the λabs is 361 nm and 379 nm and 398 nm.
